From patent US8846653B2, “Delta-tocotrienol treatment and prevention of pancreatic cancer” (University of South Florida, priority 2006, dated 2014)

What was measured:
MIA PaCa-2 cells = assay: Trypan blue cell death, δ-tocotrienol, 5-FU or combination, 24 hours; format: cell-based, human; conditions: MIA PaCa-2, 50 μM each
Experimental: MIA PaCa-2 cells were treated vehicle or an anti-proliferative treatment comprising 50 μM δ-tocotrienol, 50 μM 5-FU, or 50 μM δ-tocotrienol and 50 μM 5-FU for 24 hours. Cells were harvested, fixed, permeablized and stained with trypan blue.

p-AKT = assay: Immunoblot for p-AKT and AKT; format: cell-based, human; conditions: MIA PaCa2 and SW1990, 20 μM, 24 and 48 hours
Experimental: The Ras effector pathways Raf-MEK-ERK and PI3 kinase-AKT are important for cell proliferation and survival, respectively. Pancreatic cancer cell lines (MIA PaCa2, SW1990, BXPC3) and HPDE 6C7 cells were treated with 8-tocotrienol (20 μM) and cell lysates were collected and prepared at progressive time intervals as described above. Proteins from lysates were run by SDS PAGE and immunoblotted with the following antibodies: Ras, p-cRaf (ser 338), p-MEK1/2, MEK1/2, pERK 44/42, ERK 44/42 (Cell Signaling) and c-Raf (BD Transduction Laboratories). […] The MIA PaCa2 and SW1990 cells were then tested for AKT inhibition. The cells were treated with δ-tocotrienol (20 μM) for 24 and 48 hours and cell lysates were run by SDS-PAGE and immunoblotted for p-AKT and AKT (Cell Signaling). […] Taken together, the inhibition of downstream effectors of oncogenic Ras signaling by δ-tocotrienol without an effect on Ras protein levels may indicate a negative regulatory role of 8-tocotrienol on the function of oncogenic Ras. The pancreatic ductal epithelial cell proliferative inhibition by δ-tocotrienol was tested to see if it occurs through blocking aberrant signal transduction cascades. […]

[1] = tested on: Caspase 8, Caspase 3, PARP, cytochrome C, caspase 9; assay: Immunoblot for biomarkers of apoptosis (caspase cascade); format: cell-based, human; conditions: MIA PaCa2, 20 μM
Experimental: An aliquot of the cells were collected and cells lysed. The lysate was then run on a Western blot and cleavage of caspase 8, caspase 3, and PARP detected.
(§1) In addition to its chemopreventive effects, δ-Tocotrienol induces apoptosis in pancreatic cancer. MIA PaCa2 cells were treated with either δ-tocotrienol or vehicle for 24 hours. Cells were collected and stained with annexin V-FITC and analyzed by flow cytometry for apoptosis. […] MIA PaCa2 cells and HPDE 6C7 cells were treated with vehicle or δ-tocotrienol (20 μM) for 24 hours, then harvested and stained for TUNEL. […] Cell lysates were prepared from MIA PaCa2 cells treated with 8-tocotrienol (20 μM) at progressive time intervals and proteins from lysates were run by SDS PAGE and immunoblotted for biomarkers of apoptosis.

[2] = tested on: pancreatic cancer metastasis; assay: Pancreatic cancer metastasis in vivo (luminescence); set-up: species or system mouse
Excerpt: Images show comparison of vehicle vs. 100 MPK
The apoptotic effect of delta-tocotrienol was selective for neoplastic cells as normal pancreatic cells and in vitro immortalized human pancreatic ductal epithelial cells were not sensitive to delta-tocotrienol.

MIA PaCa2 cells [3] = assay: TUNEL staining; format: cell-based, human; conditions: MIA PaCa2, 20 μM, 24 hours, vs vehicle or treated HPDE 6C7
Experimental: as §1

[4] = tested on: oncogenic Ras signaling targets in tumors; assay: Immunohistochemical staining of extracted xenograft tumors; format: in vivo, mice
Experimental: FIGS. 50A and B are immunohistochemical stains of the effects of δ-tocotrienol on oncogenic Ras signaling targets. […] A. A comparison of H&E, Ki67, and p-MAPK staining of control versus delta-tocotrienol treated MIA PaCa2 cells. B. A comparison of p-AKT, p27^kip1, and TUNEL staining of control versus delta-tocotrienol treated cells.
Tumors were extracted on the last day of treatment and imbedded in paraffin. Immunohistochemical staining was performed to determine the effects of δ-tocotrienol on oncogenic Ras signaling targets. […] Furthermore, the biomarker proteins p-MAPK and p-AKT were decreased and p27^kip1 expression was increased in δ-tocotrienol treated tumors. […] This is associated with inhibition of AKT signaling targets. Moreover, overexpression of myr AKT in Pancreatic Cancer cells rescues the effect δ-Tocotrienol induces apoptosis in vitro and in vivo.

MIA PaCa2 cells [5] = assay: MTT cell viability, δ-tocotrienol, fluorouracil or combination; format: cell-based, human
Experimental: FIG. 39 is a graph MIA PaCa2 pancreatic cancer cells (3×10^3) treated with indicated concentrations of delta-tocotrienol, fluorouracil (5FU), or a combination of the indicated delta-tocotrienol and 5FU.
The MiaPaCa 2 cells were plated as above into 96 well plates and treated the following day with increasing concentrations of δ-tocotrienol, fluorouracil (5FU), or a combination of δ-tocotrienol and fluorouracil. The cells were collected and analyzed for cell viability using an MTT assay. […] MIA PaCa2 cells (3×10^3) were cultured as described in the Examples above, in 96-well plates and treated the following day with vehicle, δ-tocotrienol, fluorouracil, or a combination of δ-tocotrienol and fluorouracil.

HPDE 6C7 cells = assay: Proliferation by MTT, increasing concentrations of δ-tocotrienol; format: cell-based, human; conditions: HPDE 6C7, 24 hours, even at the highest concentrations
Experimental: (§2) MIA PaCa2, SW1990, BXPC3, and HPDE 6C7 cells (3×10^3) were cultured as described in the Examples above, in 96-well plates and treated the following day with increasing concentrations of δ-tocotrienol.

BxPc-3 cells = assay: Annexin V-FITC staining, flow cytometry for apoptosis; format: cell-based, human; conditions: BxPc-3, varying concentrations, 24 hours
Experimental: FIG. 4 is a graph wherein BXPC3 pancreatic cancer cells were treated with in varying concentrations of δ-tocotrienol or vehicle for 24 hours. Cells were collected and stained with Annexin V-FITC and analyzed by flow cytometry for apoptosis.
MiaPaCa2 and HPDE 6C7 cells were cultured, as discussed above, and treated with δ-tocotrienol or vehicle. […] MiaPaCa-2, BxPc-3, and SW1990 pancreatic cancer cells were treated with in varying concentrations of δ-tocotrienol or vehicle for 24 hours. The cells were then harvested for annexin V-FITC staining and analyzed by flow cytometry.

SW1990 cells = assay: Proliferation by MTT, increasing concentrations of δ-tocotrienol; format: cell-based, human; conditions: SW1990, at 24 hours; read-out: IC50 (inhibition of proliferation, MTT)
Experimental: FIG. 23 is a graph wherein SW1990 pancreatic cancer cells (3×10^3) were plated in 96 well plates and treated the following day with δ-tocotrienol. Proliferation was assessed by MTT at 24 hour intervals. […] HPDE 6C7 cells were also treated with increasing concentrations of 8-tocotrienol for 24 hours.
as §2

[6] = tumors from treated mice vs control group

CC(C)=CCC/C(C)=C/CC/C(C)=C/CC[C@]1(C)CCc2cc(O)cc(C)c2O1 [T3 delta, delta tocotrienol]
cell death (Trypan Blue) (MIA PaCa-2 cells): significantly more than 5-FU alone | p-AKT protein levels (p-AKT): decrease in p-AKT protein levels | mitochondrial pro-apoptotic proteins (cytochrome C release, cleavage of caspase 9) [1]: no significant effect | caspase cascade: cleavage of caspase 8, caspase 3, PARP ([1]; time dependent): activation of the caspase cascade | tumor response at the highest dose ([2]; highest dose, compared to vehicle/PBS): tumor regression | pancreatic cancer metastasis ([2]; in vivo, vs vehicle/PBS): inhibits pancreatic cancer metastasis | TUNEL staining (MIA PaCa2 cells [3]): significant staining for TUNEL | p27^kip1 expression ([4]; treated tumors): increased | p-AKT ([4]; treated tumors): decreased | p-MAPK ([4]; treated tumors): decreased | Ki67 staining (proliferation) [4, 6]: decrease in Ki67 | TUNEL staining (apoptosis) [4, 6]: induction of apoptosis | concentration at which the effect became significant vs vehicle (MIA PaCa2 cells [5]): 50 µM | IC50 (MIA PaCa2 cells [5]; at 24 hours): 50 µM | antiproliferative effect (HPDE 6C7 cells): relatively resistant | induction of apoptosis (annexin V-FITC) (BxPc-3 cells): dose dependent induction of apoptosis | IC50 (SW1990 cells): 20 to 25 µM
